From patent US20210238139A1, “MODULATORS OF TRYPTOPHAN CATABOLISM” (E-Therapeutics PLC, priority 2018, published 2021)
Where two headings read alike, the source gives them in different places.

Test system: SK-OV-3 cells
Assay: Effect of compounds on tryptophan catabolism in SK-OV-3 cell line (inhibition of kynurenine production, LC-MS/MS)
Type: cell-based
Details: SK-OV-3 cell line, 24 h incubation, kynurenine in supernatant by LC-MS/MS, read-out: IC50 Ranges (ic50 values for inhibition of Kynurenine production)
How it was run: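 Cells seeded overnight in McCoy's 5A/10% FBS, then switched to DMEM F-12 with 6 mg/mL L-tryptophan; compounds added at 8 3-fold dilutions from 30 μM, in duplicate, 24 h at 37 °C. Supernatant kynurenine measured by LC-MS/MS; ATP-based viability run in parallel; IC50 from % inhibition of Kyn production.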

CC(C)(C)OC(=O)N1CCC(CN(C(=O)Nc2ccc(Cl)cc2)C2CCCC2)CC1 [Compound 120, tert-butyl 4-[[(4-chlorophenyl)carbamoyl-cyclopentyl-amino]methyl]piperidine-1-carboxylate]
IC50 (Homo sapiens, SK-OV-3, 24 h): 100 to 500 nM

Cc1ccc(CN(C(=O)Nc2ccc(-c3ccccc3)cc2)C2CCCC2)o1 [Compound 150, 1-cyclopentyl-1-[(5-methyl-2-furyl)methyl]-3-(4-phenylphenyl)urea]
IC50 (Homo sapiens, SK-OV-3, 24 h): 100 to 500 nM

CC(c1cccc(C#N)c1)N(C(=O)Nc1ccc(F)cc1)C1CCC1 (racemic) [Compound 189, 1-[1-(3-cyanophenyl)ethyl]-1-cyclobutyl-3-(4-fluorophenyl)urea]
IC50 (Homo sapiens, SK-OV-3, 24 h): 100 to 500 nM

O=C(Nc1ccccc1)N(Cc1ccco1)C1CCCC1 [Compound 28, 1-cyclopentyl-1-(2-furylmethyl)-3-phenyl-urea]
IC50 (Homo sapiens, SK-OV-3, 24 h): 500 to 1000 nM

O=C(Nc1ccc(Cl)cc1)N(Cc1cnoc1)C1CCCC1 [Compound 63, 3-(4-chlorophenyl)-1-cyclopentyl-1-(isoxazol-4-ylmethyl)urea]
IC50 (Homo sapiens, SK-OV-3, 24 h): 1000 to 5000 nM

Cc1ccc(CN(C(=O)Nc2ccc(-c3cscn3)cc2)C2CCCC2)o1 [Compound 106, 1-cyclopentyl-1-[(5-methyl-2-furyl)methyl]-3-(4-thiazol-4-ylphenyl)urea]
IC50 (Homo sapiens, SK-OV-3, 24 h): 500 to 1000 nM

Cc1ccc(CN(C(=O)Nc2ccc(C#N)cc2)c2ccn(C)n2)o1 [Compound 221, 3-(4-cyanophenyl)-1-[(5-methyl-2-furyl)methyl]-1-(1-methylpyrazol-3-yl)urea]
IC50 (Homo sapiens, SK-OV-3, 24 h): 500 to 1000 nM

Cc1ccc(CN(C(=O)Nc2ccc(C#N)cc2)c2nonc2C)o1 [Compound 322, 3-(4-cyanophenyl)-1-[(5-methyl-2-furyl)methyl]-1-(4-methyl-1,2,5-oxadiazol-3-yl)urea]
IC50 (Homo sapiens, SK-OV-3, 24 h): < 100 nM

Cc1ccc(CN(C(=O)Nc2ccc(Cl)cc2)c2cncn2C)o1 [Compound 193, 3-(4-chlorophenyl)-1-[(5-methyl-2-furyl)methyl]-1-(3-methylimidazol-4-yl)urea]
IC50: 500 to 1000 nM

CC(c1cccc(C#N)c1)N(C(=O)Nc1ccc(Cl)cc1)C1CCCC1 (racemic) [Compound 173, 3-(4-chlorophenyl)-1-[1-(3-cyanophenyl)ethyl]-1-cyclopentyl-urea]
IC50 (Homo sapiens, SK-OV-3, 24 h): < 100 nM

Cc1ccc(NC(=O)N(Cc2ccc(C)o2)C2CCCC2)cn1 [Compound 246, 1-cyclopentyl-1-[(5-methyl-2-furyl)methyl]-3-(6-methyl-3-pyridyl)urea]
IC50 (Homo sapiens, SK-OV-3, 24 h): 500 to 1000 nM

Cc1ccc(CN(C(=O)Nc2nc(C#N)cs2)C2CCCC2)o1 [Compound 135, 3-(4-cyanothiazol-2-yl)-1-cyclopentyl-1-[(5-methyl-2-furyl)methyl]urea]
IC50 (Homo sapiens, SK-OV-3, 24 h): 1000 to 5000 nM

CCc1ccc(NC(=O)N(Cc2nccs2)C2CCCC2)cc1 [Compound 36, 1-cyclopentyl-3-(4-ethylphenyl)-1-(thiazol-2-ylmethyl)urea]
IC50 (Homo sapiens, SK-OV-3, 24 h): 1000 to 5000 nM

C=CCNC(=O)N(Cc1cccs1)C1CCCC1 [Compound 15, 3-allyl-1-cyclopentyl-1-(2-thienylmethyl)urea]
IC50 (Homo sapiens, SK-OV-3, 24 h): 1000 to 5000 nM

Cc1ncc(CN(C(=O)Nc2ccc(C#CCO)cc2)c2conc2C)o1 [Compound 321, 3-[4-(3-hydroxyprop-1-ynyl)phenyl]-1-(3-methylisoxazol-4-yl)-1-[(2-methyloxazol-5-yl)methyl]urea]
IC50 (Homo sapiens, SK-OV-3, 24 h): 1000 to 5000 nM

Cc1ncc(CN(C(=O)Nc2ccc(F)cc2)C2CCCC2)o1 [Compound 145, 1-cyclopentyl-3-(4-fluorophenyl)-1-[(2-methyloxazol-5-yl)methyl]urea]
IC50 (Homo sapiens, SK-OV-3, 24 h): 1000 to 5000 nM

Cc1nocc1N(Cc1cccc(C(F)(F)F)c1)C(=O)Nc1ccc(C#CCO)cc1 [Compound 315, 3-[4-(3-hydroxyprop-1-ynyl)phenyl]-1-(3-methylisoxazol-4-yl)-1-[[3-(trifluoromethyl)phenyl]methyl]urea]
IC50 (Homo sapiens, SK-OV-3, 24 h): < 100 nM

Cc1ccc(CN(C(=O)Nc2nnc(-c3cccs3)o2)C2CCCC2)o1 [Compound 168, 1-cyclopentyl-1-[(5-methyl-2-furyl)methyl]-3-[5-(2-thienyl)-1,3,4-oxadiazol-2-yl]urea]
IC50 (Homo sapiens, SK-OV-3, 24 h): 500 to 1000 nM

N#Cc1cc(CN(C(=O)NCCc2ccccc2)C2CCCC2)ccc1F [Compound 51, 1-[(3-cyano-4-fluoro-phenyl)methyl]-1-cyclopentyl-3-(2-phenylethyl)urea]
IC50 (Homo sapiens, SK-OV-3, 24 h): > 5000 nM

Cc1ccc(CN(C(=O)Nc2ccc(Cl)cc2)C2CCC(F)(F)C2)o1 (centres unmarked) [Compound 245, 3-(4-chlorophenyl)-1-(3,3-difluorocyclopentyl)-1-[(5-methyl-2-furyl)methyl]urea]
IC50 (Homo sapiens, SK-OV-3, 24 h): 100 to 500 nM

O=C(Nc1ccccc1)N(Cc1nccs1)C1CCCC1 [Compound 35, 1-cyclopentyl-3-phenyl-1-(thiazol-2-ylmethyl)urea]
IC50 (Homo sapiens, SK-OV-3, 24 h): 1000 to 5000 nM

Cc1ccc(CN(C(=O)Nc2nc3ccccc3s2)C2CCCC2)o1 [Compound 134, 3-(1,3-benzothiazol-2-yl)-1-cyclopentyl-1-[(5-methyl-2-furyl)methyl]urea]
IC50 (Homo sapiens, SK-OV-3, 24 h): 500 to 1000 nM

Cc1ccc(CN(C(=O)Nc2ccc(Cl)cc2)C2CC(F)(F)C2)o1 [Compound 247, 3-(4-chlorophenyl)-1-(3,3-difluorocyclobutyl)-1-[(5-methyl-2-furyl)methyl]urea]
IC50 (Homo sapiens, SK-OV-3, 24 h): 100 to 500 nM

Cc1ccc(CN(C(=O)Nc2ccc(C#N)cc2)c2ncccn2)o1 [Compound 324, 3-(4-cyanophenyl)-1-[(5-methyl-2-furyl)methyl]-1-pyrimidin-2-yl-urea]
IC50 (Homo sapiens, SK-OV-3, 24 h): > 5000 nM

Cn1nccc1N(Cc1ccc2ncsc2c1)C(=O)Nc1ccc(C#CCO)cc1 [Compound 280, 1-(1,3-benzothiazol-6-ylmethyl)-3-[4-(3-hydroxyprop-1-ynyl)phenyl]-1-(2-methylpyrazol-3-yl)urea]
IC50 (Homo sapiens, SK-OV-3, 24 h): 1000 to 5000 nM

CC1(CN(C(=O)Nc2ccc(F)cc2)C2CCCC2)CCN(C(=O)OC(C)(C)C)CC1 [Compound 78, tert-butyl 4-[[cyclopentyl-[(4-fluorophenyl)carbamoyl]amino]methyl]-4-methyl-piperidine-1-carboxylate]
IC50 (Homo sapiens, SK-OV-3, 24 h): 100 to 500 nM

O=C(Nc1ccc(Cl)cc1)N(Cc1ccc2nsnc2c1)C1CCC1 [Compound 240, 1-(2,1,3-benzothiadiazol-5-ylmethyl)-3-(4-chlorophenyl)-1-cyclobutyl-urea]
IC50 (Homo sapiens, SK-OV-3, 24 h): < 100 nM

O=C(Nc1ccc(F)c(F)c1)N(Cc1cccc(OC(F)(F)F)c1)C1CCCC1 [Compound 142, 1-cyclopentyl-3-(3,4-difluorophenyl)-1-[[3 (trifluoromethoxy)phenyl]methyl]urea]
IC50 (Homo sapiens, SK-OV-3, 24 h): 1000 to 5000 nM

Cc1ccc(CN(C(=O)Nc2ccccc2)C2CC2)o1 [Compound 167, 1-cyclopropyl-1-[(5-methyl-2-furyl)methyl]-3-phenyl-urea]
IC50 (Homo sapiens, SK-OV-3, 24 h): 1000 to 5000 nM

CCc1ccc(NC(=O)N(Cc2ccc(C)o2)C2CCCC2)cc1 [Compound 177, 1-cyclopentyl-3-(4-ethylphenyl)-1-[(5-methyl-2-furyl)methyl]urea]
IC50 (Homo sapiens, SK-OV-3, 24 h): < 100 nM

Cc1ccc(CN(C(=O)Nc2ccc(-c3cnn(C(C)(C)CO)c3)cc2)C2CCCC2)o1 [Compound 101, 1-cyclopentyl-3-[4-[1-(2-hydroxy-1,1-dimethyl-ethyl)pyrazol-4-yl]phenyl]-1-[(5-methyl-2-furyl)methyl]urea]
IC50 (Homo sapiens, SK-OV-3, 24 h): > 5000 nM

C#Cc1ccc(NC(=O)N(Cc2ccc(C)o2)C2CCN(C)CC2)cc1 [Compound 258, 3-(4-ethynylphenyl)-1-[(5-methyl-2-furyl)methyl]-1-(1-methyl-4-piperidyl)urea]
IC50 (Homo sapiens, SK-OV-3, 24 h): > 5000 nM

CC(NC(=O)Nc1ccc(Cl)cc1)c1ccc(Cl)s1 (racemic) [Compound 199, 1-(4-chlorophenyl)-3-[1-(5-chloro-2-thienyl)ethyl]urea]
IC50 (Homo sapiens, SK-OV-3, 24 h): 500 to 1000 nM

Cc1ccc(CN(C(=O)Nc2ccc(C#N)cc2)C2CCCC2(F)F)o1 (centres unmarked) [Compound 214, 3-(4-cyanophenyl)-1-(2,2-difluorocyclopentyl)-1-[(5-methyl-2-furyl)methyl]urea]
IC50 (Homo sapiens, SK-OV-3, 24 h): < 100 nM

CCCN(Cc1ccc(C)o1)C(=O)Nc1ccccc1 [Compound 166, 1-[(5-methyl-2-furyl)methyl]-3-phenyl-1-propyl-urea]
IC50 (Homo sapiens, SK-OV-3, 24 h): 500 to 1000 nM

Cn1ncc(CN(C(=O)Nc2ccc(F)c(F)c2)C2CCCC2)c1Cl [Compound 43, 1-[(5-chloro-1-methyl-pyrazol-4-yl)methyl]-1-cyclopentyl-3-(3,4-difluorophenyl) urea]
IC50 (Homo sapiens, SK-OV-3, 24 h): 1000 to 5000 nM

O=C(Nc1ccc(Cl)cc1)N(Cc1nc2c(s1)COCC2)C1CCCC1 [Compound 311, 3-(4-chlorophenyl)-1-cyclopentyl-1-(6,7-dihydro-4H-pyrano[4,3-d]thiazol-2-ylmethyl)urea]
IC50 (Homo sapiens, SK-OV-3, 24 h): 100 to 500 nM

CCc1ccc(NC(=O)N(Cc2ccccc2Cl)C2CCCC2)cc1 [Compound 39, 1-[(2-chlorophenyl)methyl]-1-cyclopentyl-3-(4-ethylphenyl)urea]
IC50 (Homo sapiens, SK-OV-3, 24 h): > 5000 nM

Cc1ccc(CN(C(=O)Nc2ccc(F)c(F)c2)C2CCCC2)s1 [Compound 27, 1-cyclopentyl-3-(3,4-difluorophenyl)-1-[(5-methyl-2-thienyl)methyl]urea]
IC50 (Homo sapiens, SK-OV-3, 24 h): 100 to 500 nM

N#Cc1ccc(NC(=O)N(Cc2nc3ccccc3s2)C2CCC2)cc1 [Compound 229, 1-(1,3-benzothiazol-2-ylmethyl)-3-(4-cyanophenyl)-1-cyclobutyl-urea]
IC50 (Homo sapiens, SK-OV-3, 24 h): 100 to 500 nM

Cc1ccc(C(C)N(C(=O)Nc2ccc(F)cc2)C2CCCC2)o1 (racemic) [Compound 191, 1-cyclopentyl-3-(4-fluorophenyl)-1-[1-(5-methyl-2-furyl)ethyl]urea]
IC50 (Homo sapiens, SK-OV-3, 24 h): 500 to 1000 nM

O=C(NCCc1ccccc1)N(Cc1ccccn1)C1CCCCC1 [Compound 20, 1-cyclohexyl-3-(2-phenylethyl)-1-(2-pyridylmethyl)urea]
IC50 (Homo sapiens, SK-OV-3, 24 h): > 5000 nM

N#Cc1ccc(NC(=O)N(Cc2cn3ccccc3n2)C2CCC2)cc1 [Compound 210, 3-(4-cyanophenyl)-1-cyclobutyl-1-(imidazo[1,2-a]pyridin-2-ylmethyl)urea]
IC50 (Homo sapiens, SK-OV-3, 24 h): 1000 to 5000 nM

N#Cc1ccnc(CN(C(=O)Nc2ccc(Cl)cc2)C2CCCC2)c1 [Compound 116, 3-(4-chlorophenyl)-1-[(4-cyano-2-pyridyl)methyl]-1-cyclopentyl-urea]
IC50 (Homo sapiens, SK-OV-3, 24 h): 100 to 500 nM
